Reference: patent US20100203524A1, “POLYMERASES AND METHODS OF USE THEREOF” (Helicos Biosciences Corporation, priority 2008, published 2010)

How the values were obtained:
[1] = test system: dNTP-F1 / scarred primer terminus; experiment: Sequencing-like kinetic assay: extension of scarred primer terminus with dNTP-F1 by Taq or Taq197; type: biochemical; details: 37° C., 40 nM enzyme, 10 nM DNA, 100 nM dNTP-F1
Method: Scarred primers were prepared enzymatically; following annealing of natural primers (bearing Rhodamine 110 dye-label, purchased from IDT) to templates, 15 U Klenow fragment (exo−) (New England Biolabs) in its supplied buffer was incubated with 5 μM DNA and 25 μM scarred dNTPs in 100 μL for 20 minutes at room temperature to incorporate scarred nucleotides onto the primer. Upon completion, reaction mixtures were heated at 70° C. for 15 minutes to inactivate Klenow fragment and purified from the scarred dNTPs using a DTR spin column (Edge BioSystems). Scarred primers were observed on an ABI3730 DNA sequencer and conversion to the desired scarred primer was greater than 95%.
Polymerases were added to a mixture containing scarred DNA (prepared in previous section), modified dNTPs, and reaction buffer and incubated at either 37° C. or 50° C. and aliquots removed at variable time points and added directly to a quenching solution containing 100 mM EDTA. Reaction products were characterized on an ABI3730 sequencer using the GeneScan™ LIZ 120® size standard (Applied Biosystems) as a reference. The ratio of peak heights, obtained using ABI Peak Scanner (v1.0), was used to calculate percent primer conversion as a function of time and the data was fit to a first order exponential (Prism 4 by GraphPad).
The mutations found in Sf168, Sf197, and Sf267 were cloned into full length Taq, and extension of a scarred primer terminus was characterized by measuring the rate of incorporation of each dNTP-F1 by Taq or a selected mutant. Taq197 (corresponding to the mutations from Sf197) was the most optimized of the three polymerase mutants, incorporating each dNTP-F1 48- to 377-fold more efficiently than wild type Taq, with no apparent bias toward the identity of the dNTP-F1 or the sequence of the primer, as shown in Table 7 below. Buffer conditions were as follows: 20 mM Tris pH 8.8, 10 mM NaCl, 10 mM KCl, 10 mM ammonium sulfate, 0.1% Triton X-100, 10 mM MgCl2, 37° C., 40 nM enzyme, 10 nM DNA, 100 nM dNTP-F1. N1 nucleotides are scarred (see FIG. 1 panel B).

[2] = test system: incorrect dNTP-F1s opposite dA in the template; experiment: Fidelity: misincorporation of the three incorrect dNTP-F1s opposite dA in the template; type: biochemical; details: even after 90 minutes
Method: To examine the fidelity of Taq197, the misincorporation of the three incorrect dNTP-F1s opposite dA in the template was characterized. […] Thus, based on the detection limit of the assay, it was possible to set an upper limit of 5.6×10^−4 min^−1 for the rate of mispair formation, making correct incorporation of modified nucleotides more than 5,000-fold more efficient than mispair formation.

Taq: wild type full length T. aquaticus DNA polymerase I (Taq)
rate of incorporation of dNTP-F1 ([1]; dNTP-F1 C, N1N1N1/N2N2N2 AAA/UUU): 0.002 ± 0.0002 min⁻¹ | rate of incorporation of dNTP-F1 ([1]; dNTP-F1 G, N1N1N1/N2N2N2 UIJU/AAA): 0.14 ± 0.05 min⁻¹ | rate of incorporation of dNTP-F1 ([1]; dNTP-F1 N = A, N1N1N1/N2N2N2 UUU/AAA): 0.011 ± 0.002 min⁻¹ | rate of incorporation of dNTP-F1 ([1]; dNTP-F1 U, N1N1N1/N2N2N2 CCC/GGG): 0.05 ± 0.02 min⁻¹ | synthesis of mispairs [2]: does not measurably synthesize any of the mispairs
